Experiment: gradient 5% acetonitrile 3 min, to 50% in 2 min, to 85% in 15 min, held 3 min, 100 µL/min
Details: column: Zorbax Extend-C18 2.1 x 50 mm; eluents: water / acetonitrile, 0.1% formic acid
In short: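 Each retention time is based on an adduct peak selected computationally and verified by manual inspection. Measurements used HPLC–quadrupole time-of-flight mass spectrometry in positive and negative ionization mode on mixtures of ~100 pure standards. Chromatography ran on a Zorbax Extend-C18 column (2.1 × 50 mm, 1.8 μm) at 100 μL/min with water and acetonitrile, each containing 0.1% formic acid, and dead and dwell volumes of 40 μL and 900 μL.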

| Compound | RP-LC retention time |
| --- | --- |
| NS(=O)(=O)c1ccc(CCNC(=O)c2nc(Cn3nc(-c4ccc(F)cc4)ccc3=O)no2)cc1 | 733 s |
| CCC1CN2C=NC(N3CCN(C(=O)c4ccc5c(c4)OCO5)CC3)=CC2=N1 (stereo not given) | 609 s |
| CCSCCOC(=O)C1=C(C)NC2=C(C(=O)CC(C)(C)C2)C1c1ccccn1 (stereo not given) | 648 s |
| O=C(NCC1CC1)C1CCN(C(=O)c2ncn3c2COC(c2ccc(Cl)cc2)C3)CC1 (stereo not given) | 758 s |
| Cc1cccc(NC(=O)Cn2c(=O)n(-c3cccc(C)c3)c(=O)c3c2cc(C)n3C)c1 | 888 s |
| CCN(Cc1ccccc1)c1ncc(NC(=O)c2ccccc2Cl)cc1C(=O)O | 723 s |
| Cc1cc([N+](=O)[O-])nn1CC(=O)Nc1c(F)cc(F)cc1Br | 762 s |
| COC(=O)c1ccc(NC(=O)NCc2noc3ccc(C)cc23)cc1 | 868 s |
| COc1ccc(C(=O)Nc2nnc(SCc3nnc(-c4ccc5c(c4)OCO5)o3)s2)cc1OC | 834 s |
| O=C(CC(c1ccccc1)c1ccccc1)N1CC(c2nc(-c3ccccc3)no2)C1 | 1020 s |
| O=C(NCC1CC1)C1CCCN(c2nccn3nc(-c4ccccc4Cl)cc23)C1 (stereo not given) | 816 s |
| CCc1nnc(-c2cc(C)n(CC(=O)Nc3cc(F)cc(F)c3)c2C)o1 | 844 s |
| Cc1cc(NC(=O)c2ccccc2)nc(C)n1 | 667 s |
| O=C(CSCc1nc2cccnc2n1C1CCCCC1)NCCc1ccco1 | 883 s |
| CCN1CCN(CCNC(=O)Cn2c3ccccc3c3cnn(C)c(=O)c32)CC1 | 577 s |
| CCOc1cc(C(=O)N2CCN(c3cc(-c4ccc(Cl)cc4)[nH]n3)CC2)cc(OCC)c1OCC | 997 s |
| CCn1nccc1C(=O)N1C[C@@H]2C[C@H](NC(=O)c3ccccc3)[C@H]1C2 | 673 s |
| NC(=O)c1ccccc1NC(=O)NC1CC(=O)N(c2ccc(Cl)cc2)C1 (stereo not given) | 667 s |
| c1ccc2sc(C3(N4CCCC4)CCCCC3)cc2c1 | 799 s |
| CCOc1ccccc1-c1noc(Cn2c(=O)n(Cc3cccc(OC)c3)c(=O)c3sccc32)n1 | 1110 s |
| O=C(c1cc(Cl)ccc1F)N1CCC2(CC1)NC(=O)N(Cc1ccc(F)cc1)C2=O | 852 s |
| CCCCNC(=O)c1cn(C)nc1S(=O)(=O)N1CCC(C)CC1 | 938 s |

| Compound | RP-LC retention time |
| --- | --- |
| CCN1C(=O)c2ccccc2S(=O)c2ccc(C(=O)N3CCN(c4ccccn4)CC3)cc21 (stereo not given) | 595 s |
| Cc1cc(NC(=O)C2CCCN2S(=O)(=O)c2ccc(Cl)s2)n(C(C)C)n1 (stereo not given) | 776 s |
| Cc1ccc(C)c(N2CCN(c3ccnc(SCC(=O)NC4CCCCC4)n3)CC2)c1 | 940 s |
| CN(CC(=O)NC1CCCC1)S(=O)(=O)c1ccc2nc(-c3ccccc3)[nH]c2c1 | 754 s |
| O=C(c1cccc(Cl)c1)N1CCN(c2nc(CN3CCOCC3)cs2)CC1 | 623 s |
| COc1ccc(OCC(=O)N2CCN(c3cc(=O)n(C(C)C)c(=O)n3C(C)C)CC2)cc1 | 846 s |
| CSc1ncccc1C(=O)Nc1ccc2c(c1)CCC(=O)N2 | 638 s |
| CCC1CCCCN1C(=O)c1cnc2nc(C)ccc2c1Nc1ccc(CC(=O)O)cc1 (stereo not given) | 598 s |
| Cc1sc2ccn(CC(C)C)c(=O)c2c1C(=O)N1CCN(C2CCCCC2)CC1 | 642 s |
| COc1ccc(OC)c(Nc2c(-c3ccccn3)nc3cnccn23)c1 | 744 s |
| O=C(Cc1cccc(F)c1)Nc1nnc(C2CC(=O)N(c3ccc(F)cc3)C2)o1 (stereo not given) | 726 s |
| Cc1noc(CNC(=O)C2CCN(C(=O)Cc3ccccc3Cl)CC2)n1 | 590 s |
| Cc1cc(C)c(S(=O)(=O)N2CCCC2c2nncn2Cc2ccncc2)c(C)c1 (stereo not given) | 617 s |
| CCN1CCCn2cc(S(=O)(=O)Nc3ccccc3)cc2C1=O | 666 s |
| NS(=O)(=O)c1ccc(CCNC(=O)C(=O)Nc2ccc(Cl)cn2)cc1 | 695 s |
| CCn1c(=O)n(CC)c2cc(N3CCCC3)c(NC(=O)CC(=O)OC)cc21 | 583 s |
| CCNC(=O)N1CCCC(c2cccc(C(=O)NC3CCCCCC3)c2)C1 (stereo not given) | 876 s |
| O=C(CCn1c(=O)sc2ccccc21)Nc1nc(-c2ccccc2)cs1 | 1010 s |
| COc1ccc(NC(=O)C2CCN(S(=O)(=O)c3cn(C(C)C)cn3)CC2)cc1 | 711 s |
| CCNC(=O)C1CCCN(c2nc3ncn(CC(=O)Nc4cc(F)ccc4C)c(=O)c3s2)C1 (stereo not given) | 689 s |
| COCCn1cc(CCNC(=O)Nc2ccc(C)cc2Cl)c2cccnc21 | 790 s |
| CCNC(=O)N1CCC(c2noc(-c3cccnc3)n2)C1 (stereo not given) | 605 s |

| Compound | RP-LC retention time |
| --- | --- |
| O=C(Nc1nc(-c2ccc3c(c2)OCCO3)cs1)c1ccc2ncsc2c1 | 857 s |
| CCn1cc(S(=O)(=O)NCc2ccccc2)c2cccnc21 | 804 s |
| Cc1nnc(C2CCCN(C(=O)c3cc(C(F)(F)F)cc(C(F)(F)F)c3)C2)s1 (stereo not given) | 823 s |
| COc1ccccc1-c1noc(C2CCCN2C(=O)Nc2cc(C)cc(C)c2)n1 (stereo not given) | 957 s |
| COc1cccc(-c2noc(Cc3nnc(-c4cc(F)cc(F)c4)o3)n2)c1OC | 968 s |
| CCN(CC)S(=O)(=O)c1cc(-c2nnc(-c3ccc(OC)c(OC)c3)o2)ccc1C | 991 s |
| Cc1cccc(C(=O)Nc2ccc3c(c2)Sc2ncccc2C(=O)N3C(C)C)c1 | 898 s |
| CCN1CCN(Cc2ccc(C(=O)N3CCN(c4ccc(C)cc4)CC3)cc2)C(=O)C1=O | 694 s |
| CN1C(=O)c2cc(C(=O)N3CCOCC3)nn2CC1(C)C(=O)NCc1ccccc1 (stereo not given) | 632 s |
| COc1ccc(-c2nc(COc3cc(C)c4c(C)nn(C)c4n3)c(C)o2)cc1 | 1120 s |
| O=C(NCCCn1nc(-c2cccnc2)ccc1=O)c1ccc(F)cc1F | 569 s |
| CCOC(=O)Cc1c(C)c2cc(C(=O)c3ccccc3)c(O)cc2oc1=O | 768 s |
| CCOc1ccc(/C=C/C(=O)Nc2nc(-c3ccc(C)cc3)cs2)cc1OC | 1150 s |
| O=C(c1nnc(-c2ccc(S(=O)(=O)N3CCCC3)cc2)o1)N1CCN(c2ccccn2)CC1 | 650 s |
| O=C(NCCCN1CCCCCC1)C1CCCN(c2nn3c(=O)c4c(nc3s2)CCCC4)C1 (stereo not given) | 592 s |
| CCOc1ccc(-c2noc(CN3C(=O)COc4ccc(C)cc43)n2)cc1OC | 1010 s |
| Cn1c(N2CCCCS2(=O)=O)nc(C(=O)NCc2ccc(F)cc2)c(O)c1=O | 864 s |
| Cc1ccc(N2CC(c3noc(-c4ccc(F)cc4Cl)n3)CC2=O)cc1 (stereo not given) | 1060 s |
| CCCn1cc(CCNC(=O)Nc2ccc(Br)c(C)c2)c2cccnc21 | 902 s |
| Cc1sc(-c2noc(C3CCC3)n2)cc1S(=O)(=O)N1CCC(C(=O)NCc2ccco2)CC1 | 1010 s |
| CCCN(C)C(=O)c1cc(=O)[nH]c2ccccc12 | 614 s |
